In ChEMBL document CHEMBL2074045, “Up-regulation of P-glycoprotein expression in rat liver cells by acute doxorubicin treatment” (Eur J Biochem, 1997):

How the values were obtained:
[1] = target: ATP-dependent translocase ABCB1 (Rattus norvegicus, UniProt P43245); experiment: TP_TRANSPORTER: Northern blot in vitro, nonparenchymal ral liver epithelial cells; type: functional; details: epithelial cell
[2] = target: Multidrug resistance protein 1a (Rattus norvegicus) (UniProt Q6PSM0); experiment: TP_TRANSPORTER: Western in vitro, nonparenchymal ral liver epithelial cells; type: functional, tissue-based; details: Epithelial cell
Sequence of Multidrug resistance protein 1a (Rattus norvegicus) (Q6PSM0 as listed by the source): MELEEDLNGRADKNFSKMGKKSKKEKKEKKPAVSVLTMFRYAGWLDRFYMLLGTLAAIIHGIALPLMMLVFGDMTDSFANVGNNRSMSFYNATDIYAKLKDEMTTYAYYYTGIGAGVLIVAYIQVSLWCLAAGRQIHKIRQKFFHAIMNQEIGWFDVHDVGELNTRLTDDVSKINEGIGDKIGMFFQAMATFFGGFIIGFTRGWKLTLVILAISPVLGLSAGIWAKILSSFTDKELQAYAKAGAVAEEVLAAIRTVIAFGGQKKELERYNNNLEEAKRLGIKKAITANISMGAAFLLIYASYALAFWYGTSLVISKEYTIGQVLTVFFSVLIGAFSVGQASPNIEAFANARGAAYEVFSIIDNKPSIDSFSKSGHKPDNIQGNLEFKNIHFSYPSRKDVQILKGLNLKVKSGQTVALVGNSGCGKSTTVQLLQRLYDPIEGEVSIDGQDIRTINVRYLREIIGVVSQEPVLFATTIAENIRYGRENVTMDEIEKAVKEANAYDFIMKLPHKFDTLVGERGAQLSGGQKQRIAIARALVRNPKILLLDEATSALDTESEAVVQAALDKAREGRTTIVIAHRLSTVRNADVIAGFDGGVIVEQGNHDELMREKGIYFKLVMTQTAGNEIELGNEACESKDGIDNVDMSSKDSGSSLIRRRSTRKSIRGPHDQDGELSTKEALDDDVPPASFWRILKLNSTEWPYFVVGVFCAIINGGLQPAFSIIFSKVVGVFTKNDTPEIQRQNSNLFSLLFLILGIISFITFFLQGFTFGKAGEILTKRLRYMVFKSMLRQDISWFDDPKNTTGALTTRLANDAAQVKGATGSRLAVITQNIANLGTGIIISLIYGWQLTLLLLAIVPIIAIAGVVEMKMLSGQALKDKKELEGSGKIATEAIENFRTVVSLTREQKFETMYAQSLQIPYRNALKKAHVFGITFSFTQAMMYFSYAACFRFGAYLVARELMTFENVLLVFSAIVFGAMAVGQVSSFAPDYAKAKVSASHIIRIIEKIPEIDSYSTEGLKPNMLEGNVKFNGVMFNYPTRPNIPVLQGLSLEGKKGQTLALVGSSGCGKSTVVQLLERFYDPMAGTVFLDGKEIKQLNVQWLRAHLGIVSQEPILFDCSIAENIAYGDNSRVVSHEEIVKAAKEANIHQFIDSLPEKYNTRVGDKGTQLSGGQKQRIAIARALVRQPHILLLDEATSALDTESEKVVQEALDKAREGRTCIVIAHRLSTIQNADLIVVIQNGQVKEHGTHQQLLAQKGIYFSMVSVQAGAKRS

Sequence of ATP-dependent translocase ABCB1 (P43245 whole entry): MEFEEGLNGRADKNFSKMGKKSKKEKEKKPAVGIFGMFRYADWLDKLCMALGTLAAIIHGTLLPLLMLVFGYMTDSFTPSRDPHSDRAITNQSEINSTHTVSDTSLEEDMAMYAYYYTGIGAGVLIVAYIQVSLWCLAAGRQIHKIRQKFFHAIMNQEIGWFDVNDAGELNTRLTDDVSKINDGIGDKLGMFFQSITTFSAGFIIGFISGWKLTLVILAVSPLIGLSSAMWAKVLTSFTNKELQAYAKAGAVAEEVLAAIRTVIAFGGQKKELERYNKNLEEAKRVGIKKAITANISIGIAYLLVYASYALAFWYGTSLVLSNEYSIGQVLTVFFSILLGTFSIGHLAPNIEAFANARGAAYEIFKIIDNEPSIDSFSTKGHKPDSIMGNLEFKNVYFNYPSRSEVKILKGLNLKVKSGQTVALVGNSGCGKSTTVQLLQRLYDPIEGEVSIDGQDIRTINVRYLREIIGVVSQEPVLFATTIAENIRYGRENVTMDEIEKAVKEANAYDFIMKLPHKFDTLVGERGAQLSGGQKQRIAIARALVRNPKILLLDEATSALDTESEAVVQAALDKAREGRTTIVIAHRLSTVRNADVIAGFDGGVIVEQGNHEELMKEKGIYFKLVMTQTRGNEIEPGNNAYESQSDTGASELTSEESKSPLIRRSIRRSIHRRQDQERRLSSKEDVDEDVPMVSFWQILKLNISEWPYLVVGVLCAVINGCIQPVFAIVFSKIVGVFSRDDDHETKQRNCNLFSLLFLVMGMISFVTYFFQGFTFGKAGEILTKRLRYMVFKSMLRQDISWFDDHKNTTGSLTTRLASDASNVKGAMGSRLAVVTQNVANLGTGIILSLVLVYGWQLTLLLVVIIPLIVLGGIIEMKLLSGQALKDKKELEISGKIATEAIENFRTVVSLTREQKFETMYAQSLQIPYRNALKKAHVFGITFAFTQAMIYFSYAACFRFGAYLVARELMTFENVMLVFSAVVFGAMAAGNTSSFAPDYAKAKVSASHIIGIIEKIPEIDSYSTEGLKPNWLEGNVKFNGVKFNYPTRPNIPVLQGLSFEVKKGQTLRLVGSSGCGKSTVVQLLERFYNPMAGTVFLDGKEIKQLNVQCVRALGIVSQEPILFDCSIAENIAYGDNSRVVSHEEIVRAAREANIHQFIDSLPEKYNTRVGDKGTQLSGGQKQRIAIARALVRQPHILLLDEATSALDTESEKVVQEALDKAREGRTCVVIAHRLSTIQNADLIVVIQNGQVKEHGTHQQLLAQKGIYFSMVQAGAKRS

What does the source list for `COc1cccc2c1C(=O)c1c(O)c3c(c(O)c1C2=O)C[C@@](O)(C(=O)CO)C[C@@H]3O[C@H]1C[C@H](N)[C@H](O)[C@H](C)O1` [DOXORUBICIN]?
Activity [1]: inducer [+]; Activity [2]: inducer [+]
